Measurements as given in publication PMC3945162 (Psychopharmacology, 2013).
Values joined by “and” are separate entries in the source; they are usually repeats but may differ in a detail not shown here. Equal entries are not always repeated. Where two headings read alike, the source gives them in different places.

Tests used:
human 5-HT2A receptor [1] = target: T1, human 5-HT2A receptor (Homo sapiens, UniProt P28223); assay: IP-1 formation, HEK-5-HT2A cells; type: cell-based; conditions: for Emax: read-out: 5-HT2A Function IP-1 formation % maximal effect
hDAT [2] = target: T2, hDAT (Homo sapiens, UniProt Q01959); assay: [3H]Dopamine release, HEK-hDAT cells; type: cell-based; conditions: HEK-hDAT cells
hSERT [3] = target: T3, hSERT (Homo sapiens, UniProt P31645); assay: [3H]Serotonin release, HEK-hSERT cells; type: cell-based
human 5-HT1A receptor [4] = target: T4, human 5-HT1A receptor (Homo sapiens, UniProt P08908); assay: [3H]8-OH-DPAT binding, HEK-5-HT1A
T4 sequence (P08908 1-422): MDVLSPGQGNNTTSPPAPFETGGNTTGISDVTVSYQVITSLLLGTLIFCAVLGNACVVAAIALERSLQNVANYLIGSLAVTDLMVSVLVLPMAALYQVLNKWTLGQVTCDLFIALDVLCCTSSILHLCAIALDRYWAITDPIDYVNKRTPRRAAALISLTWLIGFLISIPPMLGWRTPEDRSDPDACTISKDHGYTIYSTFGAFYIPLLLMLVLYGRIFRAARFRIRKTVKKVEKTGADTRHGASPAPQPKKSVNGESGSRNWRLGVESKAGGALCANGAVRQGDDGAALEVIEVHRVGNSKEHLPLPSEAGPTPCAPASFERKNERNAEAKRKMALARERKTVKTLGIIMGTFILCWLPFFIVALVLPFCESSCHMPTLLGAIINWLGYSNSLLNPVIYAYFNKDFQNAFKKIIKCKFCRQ

human 5-HT2C receptor [5] = target: T5, human 5-HT2C receptor (Homo sapiens, UniProt P28335); assay: biochemical; type: binding
T5 sequence (P28335 33-458): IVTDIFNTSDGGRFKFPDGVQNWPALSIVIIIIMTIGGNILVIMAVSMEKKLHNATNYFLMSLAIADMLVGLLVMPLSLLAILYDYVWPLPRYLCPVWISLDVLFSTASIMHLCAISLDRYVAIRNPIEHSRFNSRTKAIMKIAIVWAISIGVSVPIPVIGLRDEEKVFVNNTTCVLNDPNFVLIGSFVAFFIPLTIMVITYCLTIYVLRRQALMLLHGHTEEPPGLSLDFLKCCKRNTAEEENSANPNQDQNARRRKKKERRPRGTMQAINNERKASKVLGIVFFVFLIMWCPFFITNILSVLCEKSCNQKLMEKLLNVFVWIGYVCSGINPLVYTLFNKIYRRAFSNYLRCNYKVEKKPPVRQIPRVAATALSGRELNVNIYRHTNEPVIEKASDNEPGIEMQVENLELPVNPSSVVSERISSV

[6] = system: rats trained to discriminate DOM (0.5 mg/kg) from saline; type: in vivo, rat; conditions: for Maximum %DAR (drug-appropriate responding): i.p., at dose of maximum DAR
hDAT [7] = target: T2, hDAT; assay: [3H]Dopamine uptake, HEK-hDAT cells; type: cell-based
human 5-HT2C receptor [8] = target: T5, human 5-HT2C receptor; assay: cell-based; conditions: for Emax: read-out: 5-HT2C Function IP-formation % maximal effect
hNET [9] = target: T6, hNET (Homo sapiens, UniProt P23975); assay: biochemical; type: binding
human 5-HT1A receptor [10] = target: T4, human 5-HT1A receptor; assay: [35S]GTPγS binding functional assay, HEK-5-HT1A; type: biochemical; conditions: for Emax: read-out: 5-HT1A Function [35S]GTPγS Binding % maximal effect
[11] = system: rats trained to discriminate DMT (5 mg/kg) from saline; type: in vivo, rat; conditions: for Dose(s) that decreased response rate: rat, in vivo
hNET [12] = target: T6, hNET; assay: cell-based
[13] = system: rats trained to discriminate METH (1 mg/kg) from saline; type: in vivo, rat
hSERT [14] = target: T3, hSERT; assay: [125I]RTI-55 binding, HEK-hSERT cells
[15] = system: rats trained to discriminate LSD (0.1 mg/kg) from saline; type: in vivo, rat; conditions: for Rate of responding at dose of maximum DAR / Maximum %DAR (drug-appropriate responding): LSD-trained rats; for Maximum %DAR (drug-appropriate responding): i.p., at dose of maximum DAR
hNET [16] = target: T6, hNET; assay: cell-based; remark: listed apart in the source
hSERT [17] = target: T3, hSERT; assay: [3H]Serotonin uptake, HEK-hSERT cells; type: cell-based
[18] = system: rats trained to discriminate MDMA (1.5 mg/kg) from saline; type: in vivo, rat; conditions: for Rate of responding at dose of maximum DAR / Maximum %DAR (drug-appropriate responding): MDMA-trained rats; for Maximum %DAR (drug-appropriate responding): i.p., at dose of maximum DAR; for Dose(s) that decreased response rate: rat, in vivo
Male Sprague-Dawley rats = assay: Adverse effects observed during drug discrimination test sessions; type: in vivo, rat; conditions: 25 mg/kg i.p.
human 5-HT2A receptor [19] = target: T1, human 5-HT2A receptor; assay: [3H]AA release from HEK-5-HT2A cells; type: cell-based; conditions: for Emax: read-out: 5-HT2A Function [3H]AA release % maximal effect
human 5-HT2A receptor [20] = target: T1, human 5-HT2A receptor; assay: [125I]DOI binding, HEK-5-HT2A cells
hDAT [21] = target: T2, hDAT; assay: [125I]RTI-55 binding, HEK-hDAT cells
Male Swiss–Webster mice = assay: Locomotor activity; type: in vivo, mouse
[22] = DMT-trained rats, 15 min pretreatment
[23] = METH-trained rats, 15 min pretreatment

T1 sequence (P28223 whole entry): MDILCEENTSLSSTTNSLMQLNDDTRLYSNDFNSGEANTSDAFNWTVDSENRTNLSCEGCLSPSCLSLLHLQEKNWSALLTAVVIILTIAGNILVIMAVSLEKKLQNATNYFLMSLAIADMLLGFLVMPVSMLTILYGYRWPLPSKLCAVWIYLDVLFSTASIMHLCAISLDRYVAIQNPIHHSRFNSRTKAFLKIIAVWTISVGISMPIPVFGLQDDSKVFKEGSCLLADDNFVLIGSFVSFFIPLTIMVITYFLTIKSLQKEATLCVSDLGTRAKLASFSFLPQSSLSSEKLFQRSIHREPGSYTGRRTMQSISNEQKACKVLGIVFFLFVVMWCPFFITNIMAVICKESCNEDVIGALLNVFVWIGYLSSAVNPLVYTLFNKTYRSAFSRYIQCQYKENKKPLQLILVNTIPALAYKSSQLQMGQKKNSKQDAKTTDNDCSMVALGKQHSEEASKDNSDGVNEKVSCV
T3 sequence (P31645 whole entry): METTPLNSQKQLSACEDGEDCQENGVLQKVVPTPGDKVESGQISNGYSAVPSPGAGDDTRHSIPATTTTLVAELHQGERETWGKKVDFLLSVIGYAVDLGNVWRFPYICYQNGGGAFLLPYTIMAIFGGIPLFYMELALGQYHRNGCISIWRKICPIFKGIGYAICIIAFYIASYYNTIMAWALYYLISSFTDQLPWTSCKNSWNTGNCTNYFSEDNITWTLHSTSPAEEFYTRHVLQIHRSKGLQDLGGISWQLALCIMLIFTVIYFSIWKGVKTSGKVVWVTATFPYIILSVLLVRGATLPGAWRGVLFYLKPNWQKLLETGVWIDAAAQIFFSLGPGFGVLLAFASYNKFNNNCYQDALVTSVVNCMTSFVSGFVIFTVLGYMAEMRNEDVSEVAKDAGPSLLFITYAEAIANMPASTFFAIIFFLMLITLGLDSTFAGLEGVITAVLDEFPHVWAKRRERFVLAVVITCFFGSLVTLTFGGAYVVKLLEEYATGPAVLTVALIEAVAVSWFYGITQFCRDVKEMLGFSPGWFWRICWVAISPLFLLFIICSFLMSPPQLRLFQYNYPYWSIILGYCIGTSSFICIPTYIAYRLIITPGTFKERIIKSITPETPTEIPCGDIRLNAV
T2 sequence (Q01959 whole entry): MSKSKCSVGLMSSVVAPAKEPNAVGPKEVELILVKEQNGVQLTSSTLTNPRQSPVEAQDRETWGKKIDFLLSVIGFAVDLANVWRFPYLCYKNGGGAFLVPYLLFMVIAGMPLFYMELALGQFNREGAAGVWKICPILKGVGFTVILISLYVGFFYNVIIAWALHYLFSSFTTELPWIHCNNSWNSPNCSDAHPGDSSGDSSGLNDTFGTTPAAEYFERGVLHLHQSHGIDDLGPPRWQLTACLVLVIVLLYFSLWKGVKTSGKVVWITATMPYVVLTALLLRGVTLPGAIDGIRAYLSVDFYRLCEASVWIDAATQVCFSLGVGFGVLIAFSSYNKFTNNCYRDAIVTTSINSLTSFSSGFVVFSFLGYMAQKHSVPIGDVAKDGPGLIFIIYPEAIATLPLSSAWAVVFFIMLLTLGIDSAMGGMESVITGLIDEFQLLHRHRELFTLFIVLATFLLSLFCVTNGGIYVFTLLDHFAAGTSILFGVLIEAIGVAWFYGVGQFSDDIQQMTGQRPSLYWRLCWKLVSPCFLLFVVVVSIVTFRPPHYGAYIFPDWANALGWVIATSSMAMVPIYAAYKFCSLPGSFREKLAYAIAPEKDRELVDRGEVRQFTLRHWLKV
T6 sequence (P23975 whole entry): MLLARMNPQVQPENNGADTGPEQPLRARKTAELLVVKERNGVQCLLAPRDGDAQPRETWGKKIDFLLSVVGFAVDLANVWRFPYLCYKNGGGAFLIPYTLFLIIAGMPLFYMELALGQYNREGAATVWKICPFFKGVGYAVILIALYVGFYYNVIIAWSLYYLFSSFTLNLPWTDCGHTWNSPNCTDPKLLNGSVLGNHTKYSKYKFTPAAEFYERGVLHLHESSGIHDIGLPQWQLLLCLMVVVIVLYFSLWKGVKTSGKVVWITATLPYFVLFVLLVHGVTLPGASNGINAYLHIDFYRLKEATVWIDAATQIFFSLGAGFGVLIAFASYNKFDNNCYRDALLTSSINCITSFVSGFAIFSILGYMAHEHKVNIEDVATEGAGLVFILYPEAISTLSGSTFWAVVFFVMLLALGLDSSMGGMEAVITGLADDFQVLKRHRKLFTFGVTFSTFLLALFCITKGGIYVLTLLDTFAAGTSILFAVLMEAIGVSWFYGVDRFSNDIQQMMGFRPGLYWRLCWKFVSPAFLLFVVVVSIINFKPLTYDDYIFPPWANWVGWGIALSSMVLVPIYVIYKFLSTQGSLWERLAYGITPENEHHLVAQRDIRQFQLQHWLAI

COc1cc(CCN)c(OC)cc1Cl [2C-C, 2,5-dimethoxy-4-chlorophenethylamine]
EC50 (human 5-HT2A receptor [1]): 40.1 ± 4.7 nM
Emax (human 5-HT2A receptor [1]): 102 ± 5.5%
[3H]Dopamine release % METH maximal effect (hDAT [2]): ND Minimal
[3H]Serotonin release % PCA maximal effect (hSERT [3]): ND Minimal
Ki (human 5-HT1A receptor [4]): 740 ± 170 nM
Ki (human 5-HT2C receptor [5]): 5.4 ± 1.2 nM
Rate of responding at dose of maximum DAR ([6]; 15 min pretreatment): 0.366±0.070 resp/s
Maximum %DAR (drug-appropriate responding) ([6]; 15 min pretreatment): 82±16 %
IC50 (hDAT [7]): > 10 µM
EC50 (human 5-HT2C receptor [8]): 24.2 ± 5.6 nM
Emax (human 5-HT2C receptor [8]): 93.5 ± 6.5%
Ki (hNET [9]): > 7.6 µM
EC50 (human 5-HT1A receptor [10]): > 10 µM
Emax (human 5-HT1A receptor [10]): < 25%
Rate of responding at dose of maximum DAR [11, 22]: 0.235±0.098 resp/s
Dose(s) that decreased response rate [11]: 10 mg/kg
[3H]NE release % METH maximal effect (hNET [12]): ND Minimal
Rate of responding at dose of maximum DAR [13, 23]: 0.156±0.096 resp/s
Dose(s) that decreased response rate ([13]; rat, in vivo): 25 mg/kg
Ki (hSERT [14]): > 10 µM
Rate of responding at dose of maximum DAR ([15]; 15 min pretreatment): 0.200±0.079 resp/s
Maximum %DAR (drug-appropriate responding) ([15]; 15 min pretreatment): 75% and 75±25 ^2%
Dose(s) that decreased response rate ([15]; rat, in vivo): 10 mg/kg
IC50 (hNET [16]): > 9.5 µM
IC50 (hSERT [17]): > 9.6 µM
Rate of responding at dose of maximum DAR ([18]; 15 min pretreatment): 0.244±0.086 resp/s
Maximum %DAR (drug-appropriate responding) ([18]; 15 min pretreatment): 89±11 %
Dose(s) that decreased response rate [18]: 2.5 mg/kg
Reddening of the extremities (rats affected/tested) (Male Sprague-Dawley rats): 3/3
Salivation (rats affected/tested) (Male Sprague-Dawley rats): 1/3
EC50 (human 5-HT2A receptor [19]): 13.9 ± 6.1 nM
Emax (human 5-HT2A receptor [19]): 64.2 ± 2.2%
Ki (human 5-HT2A receptor [20]): 5.47 ± 0.68 nM
Ki (hDAT [21]): > 10 µM
Convulsions (mice affected/tested) (Male Swiss–Webster mice; 100 mg/kg i.p., at 30 min): 2/8
Tremors (mice affected/tested) (Male Swiss–Webster mice; 100 mg/kg i.p., at 30 min): 6/8
Lethality (mice) (Male Swiss–Webster mice; 100 mg/kg i.p., within 120 min): 1/8
Onset of depressant effects (within, after injection) (Male Swiss–Webster mice; mice, i.p.): ≤ 10 min

COc1cc(CCN)c(OC)cc1I [2C-I, 2,5-dimethoxy-4-iodophenethylamine]
EC50 (human 5-HT2A receptor [1]): 7.9 ± 2.2 nM
Emax (human 5-HT2A receptor [1]): 82.4 ± 6.4%
[3H]Dopamine release % METH maximal effect (hDAT [2]): ND Minimal
[3H]Serotonin release % PCA maximal effect (hSERT [3]): ND Minimal
Ki (human 5-HT1A receptor [4]): 970 ± 430 nM
Ki (human 5-HT2C receptor [5]): 10.2 ± 1.7 nM
IC50 (hDAT [7]): > 9.6 µM
EC50 (human 5-HT2C receptor [8]): 2.8 ± 1 nM
Emax (human 5-HT2C receptor [8]): 79 ± 16%
Ki (hNET [9]): > 10 µM
EC50 (human 5-HT1A receptor [10]): 4.9 ± 2 µM
Emax (human 5-HT1A receptor [10]): 102 ± 4.7%
Rate of responding at dose of maximum DAR [11, 22]: 0.480±0.092 resp/s
[3H]NE release % METH maximal effect (hNET [12]): ND Minimal
Rate of responding at dose of maximum DAR [13, 23]: 0.447±0.058 resp/s
Maximum %DAR (drug-appropriate responding) ([13]; METH-trained rats, i.p., 15 min pretreatment, at dose of maximum DAR): 38% and 38±17 ^1%
Ki (hSERT [14]): 0.95 ± 0.44 µM
Rate of responding at dose of maximum DAR ([15]; 15 min pretreatment): 0.233±0.075 resp/s
Maximum %DAR (drug-appropriate responding) ([15]; 15 min pretreatment): 80±20 %
IC50 (hNET [16]): > 8.2 µM
IC50 (hSERT [17]): 5.6 ± 2.1 µM
Rate of responding at dose of maximum DAR ([18]; 15 min pretreatment): 0.453±0.169 resp/s
Maximum %DAR (drug-appropriate responding) ([18]; 15 min pretreatment): 65% and 65±21 ^1%
Dose(s) that decreased response rate [18]: 2.5 to 10 mg/kg
Emax (human 5-HT2A receptor [19]): 32.5 ± 1.5%
Ki (human 5-HT2A receptor [20]): 9.3 ± 3.2 nM
Ki (hDAT [21]): > 10 µM
Doses producing depression of locomotor activity (Male Swiss–Webster mice; mice, i.p.): 3 to 30 mg/kg
Duration of depressant effects (Male Swiss–Webster mice; mice, i.p.): 30 to 60 min
Onset of depressant effects (within, after injection) (Male Swiss–Webster mice; mice, i.p.): ≤ 10 min

COc1cc(CC(C)N)c(OC)cc1Cl (centres unmarked) [DOC, 2,5-Dimethoxy-4-chloroamphetamine]
EC50 (human 5-HT2A receptor [1]): 10.5 ± 2.6 nM
Emax (human 5-HT2A receptor [1]): 102 ± 4.2%
[3H]Dopamine release % METH maximal effect (hDAT [2]): ND Minimal
[3H]Serotonin release % PCA maximal effect (hSERT [3]): ND Minimal
Ki (human 5-HT1A receptor [4]): > 9200 nM
Ki (human 5-HT2C receptor [5]): 3.57 ± 0.56 nM
Rate of responding at dose of maximum DAR ([6]; 15 min pretreatment): 0.708±0.072 resp/s
Rate of responding at dose of maximum DAR ([6]; 60 min pretreatment): 0.493±0.058 resp/s
Maximum %DAR (drug-appropriate responding) ([6]; 15 min pretreatment): 83±17 %
Maximum %DAR (drug-appropriate responding) ([6]; 60 min pretreatment): 87±13 %
IC50 (hDAT [7]): > 10 µM
EC50 (human 5-HT2C receptor [8]): 14.6 ± 3 nM
Emax (human 5-HT2C receptor [8]): 97 ± 19%
Ki (hNET [9]): > 7.7 µM
EC50 (human 5-HT1A receptor [10]): > 10 µM
Emax (human 5-HT1A receptor [10]): < 10%
Rate of responding at dose of maximum DAR [11, 22]: 0.354±0.125 resp/s
Rate of responding at dose of maximum DAR ([11]; DMT-trained rats, 60 min pretreatment): 0.777±0.095 resp/s
Maximum %DAR (drug-appropriate responding) ([11]; DMT-trained rats, i.p., 60 min pretreatment, at dose of maximum DAR): 83±17 %
Dose(s) that decreased response rate [11]: ≥ 1 mg/kg
[3H]NE release % METH maximal effect (hNET [12]): ND Minimal
Rate of responding at dose of maximum DAR [13, 23]: 0.876±0.330 resp/s
Rate of responding at dose of maximum DAR ([13]; METH-trained rats, 60 min pretreatment): 0.276±0.098 resp/s
Ki (hSERT [14]): > 10 µM
Rate of responding at dose of maximum DAR ([15]; 15 min pretreatment): 0.402±0.049 resp/s
Rate of responding at dose of maximum DAR ([15]; 60 min pretreatment): 0.410±0.139 resp/s
Maximum %DAR (drug-appropriate responding) ([15]; 15 min pretreatment): 81±16 %
Maximum %DAR (drug-appropriate responding) ([15]; 60 min pretreatment): 95±3 %
IC50 (hNET [16]): > 8.4 µM
IC50 (hSERT [17]): > 8.6 µM
Rate of responding at dose of maximum DAR ([18]; 15 min pretreatment): 0.449±0.104 resp/s
Rate of responding at dose of maximum DAR ([18]; 60 min pretreatment): 0.356±0.141 resp/s
Maximum %DAR (drug-appropriate responding) ([18]; 60 min pretreatment): 60% and 60±24 ^2%
EC50 (human 5-HT2A receptor [19]): 2.91 ± 0.66 nM
Emax (human 5-HT2A receptor [19]): 81 ± 16%
Ki (human 5-HT2A receptor [20]): 4 ± 0.45 nM
Ki (hDAT [21]): > 10 µM
Duration of depressant effects (Male Swiss–Webster mice; mice, i.p.): 30 to 80 min
Onset of depressant effects (within, after injection) (Male Swiss–Webster mice; mice, i.p.): ≤ 10 min
